Test results as given in PMC5218480 (PLoS ONE, 2017).

Test system: MV-4-11 cells
Assay: Gene expression microarray analysis (Affymetrix PrimeView) and GSEA
Type: cell-based, human
Parameters: RFU PODN (11730768_x_at) / Fold change /veh PODN (11730768_x_at) / RFU LINC00158 (11744669_a_at) / Fold change /veh LINC00158 (11744669_a_at) / RFU DUSP10 (11751237_a_at) / Fold change /veh DUSP10 (11751237_a_at) / RFU ID3 (11757404_x_at) / Fold change /veh ID3 (11757404_x_at) / RFU PLEKHG5 (11737974_s_at) / Fold change /veh PLEKHG5 (11737974_s_at) / RFU LRRC4B (11730491_at) / Fold change /veh LRRC4B (11730491_at) / RFU GIMAP4 (11747438_a_at) / Fold change /veh GIMAP4 (11747438_a_at) / RFU KRT8 (11758183_x_at) / Fold change /veh KRT8 (11758183_x_at) / RFU CNN1 (11734310_a_at) / Fold change /veh CNN1 (11734310_a_at) / RFU VPS37D (11726825_at) / Fold change /veh VPS37D (11726825_at) / RFU C10orf10 (11716522_x_at) / Fold change /veh C10orf10 (11716522_x_at) / RFU KIR2DL2 /// KIR2DL4 /// KIR2DL5A /// KIR2DL5B /// KIR2DS1 /// KIR2DS2 /// KIR2DS3 /// KIR2DS4 /// KIR3DL3 /// KIR3DL3 /// KIR3DS1 (11738374_at) / Fold change /veh KIR2DL2 /// KIR2DL4 /// KIR2DL5A /// KIR2DL5B /// KIR2DS1 /// KIR2DS2 /// KIR2DS3 /// KIR2DS4 /// KIR3DL3 /// KIR3DL3 /// KIR3DS1 (11738374_at) / RFU C1QL1 (11718748_at) / Fold change /veh C1QL1 (11718748_at) / RFU TMPRSS4 (11747572_a_at) / Fold change /veh TMPRSS4 (11747572_a_at) / RFU HAMP (11756126_x_at) / Fold change /veh HAMP (11756126_x_at) / RFU RNFT2 (11725882_a_at) / Fold change /veh RNFT2 (11725882_a_at) / RFU NR4A2 (11747474_a_at) / Fold change /veh NR4A2 (11747474_a_at) / RFU ABCC12 (11746883_a_at) / Fold change /veh ABCC12 (11746883_a_at) / RFU TMEM136 (11760407_x_at) / Fold change /veh TMEM136 (11760407_x_at) / RFU CLDN22 /// WWC2 (11732394_at) / Fold change /veh CLDN22 /// WWC2 (11732394_at) / RFU HLA-DPB1 (11760878_x_at) / Fold change /veh HLA-DPB1 (11760878_x_at) / RFU SPINT1 (11716480_a_at) / Fold change /veh SPINT1 (11716480_a_at) / RFU GAP43 (11754022_s_at) / Fold change /veh GAP43 (11754022_s_at) / RFU A4GNT (11735810_at) / Fold change /veh A4GNT (11735810_at) / RFU PRB3 (11715151_x_at) / Fold change /veh PRB3 (11715151_x_at) / RFU TUBB4B (11761932_at) / Fold change /veh TUBB4B (11761932_at) / RFU CAPN14 (11732068_a_at) / Fold change /veh CAPN14 (11732068_a_at) / RFU TMCC2 (11721928_a_at) / Fold change /veh TMCC2 (11721928_a_at) / RFU IRGQ (11745062_a_at) / Fold change /veh IRGQ (11745062_a_at) / RFU FAM174B (11720279_a_at) / Fold change /veh FAM174B (11720279_a_at) / RFU TMPRSS4 (11748680_a_at) / Fold change /veh TMPRSS4 (11748680_a_at) / RFU FAM212B (11763350_a_at) / Fold change /veh FAM212B (11763350_a_at) / RFU PLEKHG5 (11743358_a_at) / Fold change /veh PLEKHG5 (11743358_a_at) / RFU ZSCAN30 (11745921_a_at) / Fold change /veh ZSCAN30 (11745921_a_at) / RFU CMKLR1 (11741424_a_at) / Fold change /veh CMKLR1 (11741424_a_at) / RFU LOC101060620 /// MAPK8IP1 (11723275_at) / Fold change /veh LOC101060620 /// MAPK8IP1 (11723275_at) / RFU SPTSSB (11747773_x_at) / Fold change /veh SPTSSB (11747773_x_at) / RFU PRSS12 (11739890_at) / Fold change /veh PRSS12 (11739890_at) / RFU BIN1 (11741810_x_at) / Fold change /veh BIN1 (11741810_x_at) / RFU WNT11 (11732464_a_at) / Fold change /veh WNT11 (11732464_a_at) / RFU C10orf10 (11716521_a_at) / Fold change /veh C10orf10 (11716521_a_at) / RFU C5orf56 (11738089_at) / Fold change /veh C5orf56 (11738089_at) / RFU CYB561 (11721691_x_at) / Fold change /veh CYB561 (11721691_x_at) / RFU ANKRD19P (11752326_a_at) / Fold change /veh ANKRD19P (11752326_a_at) / RFU OR2T12 /// OR2T33 /// OR2T8 (11738714_s_at) / Fold change /veh OR2T12 /// OR2T33 /// OR2T8 (11738714_s_at) / RFU VCAN (11748164_a_at) / Fold change /veh VCAN (11748164_a_at) / RFU JSRP1 (11732532_at) / Fold change /veh JSRP1 (11732532_at) / RFU KRTAP10-11 (11738290_x_at) / Fold change /veh KRTAP10-11 (11738290_x_at) / RFU MYO3A (11730013_a_at) / Fold change /veh MYO3A (11730013_a_at) / RFU EBF3 (11725865_a_at) / Fold change /veh EBF3 (11725865_a_at) / RFU CAMK2N1 (11719241_x_at) / Fold change /veh CAMK2N1 (11719241_x_at) / RFU C5orf56 (11738088_a_at) / Fold change /veh C5orf56 (11738088_a_at) / RFU OLFML3 (11715873_a_at) / Fold change /veh OLFML3 (11715873_a_at) / RFU LOC100653217 /// NTM (11731650_a_at) / Fold change /veh LOC100653217 /// NTM (11731650_a_at) / RFU MAPK11 (11762145_a_at) / Fold change /veh MAPK11 (11762145_a_at) / RFU FIZ1 (11724087_x_at) / Fold change /veh FIZ1 (11724087_x_at) / RFU OASL (11726364_x_at) / Fold change /veh OASL (11726364_x_at) / RFU SOX15 (11748057_x_at) / Fold change /veh SOX15 (11748057_x_at) / RFU CD79A (11719716_a_at) / Fold change /veh CD79A (11719716_a_at) / RFU HIST1H1D (11736915_at) / Fold change /veh HIST1H1D (11736915_at) / RFU CASKIN2 (11723855_a_at) / Fold change /veh CASKIN2 (11723855_a_at) / RFU LOC730098 (11760151_x_at) / Fold change /veh LOC730098 (11760151_x_at) / RFU OR4N2 (11742367_at) / Fold change /veh OR4N2 (11742367_at) / RFU PRRT2 (11749266_a_at) / Fold change /veh PRRT2 (11749266_a_at) / RFU SNX32 (11753110_a_at) / Fold change /veh SNX32 (11753110_a_at) / RFU CDHR5 (11726645_a_at) / Fold change /veh CDHR5 (11726645_a_at) / RFU RCAN1 (11760418_a_at) / Fold change /veh RCAN1 (11760418_a_at) / RFU FAM167A (11723789_a_at) / Fold change /veh FAM167A (11723789_a_at) / RFU FAM26E (11764081_at) / Fold change /veh FAM26E (11764081_at) / RFU ISYNA1 (11749810_s_at) / Fold change /veh ISYNA1 (11749810_s_at) / RFU ACY1 (11761880_at) / Fold change /veh ACY1 (11761880_at) / RFU 11764098_at / Fold change /veh 11764098_at / RFU SAMD14 (11745864_x_at) / Fold change /veh SAMD14 (11745864_x_at) / RFU NPB (11741838_a_at) / Fold change /veh NPB (11741838_a_at) / RFU TMPRSS6 (11731388_a_at) / Fold change /veh TMPRSS6 (11731388_a_at) / RFU KRTAP10-2 (11738614_at) / Fold change /veh KRTAP10-2 (11738614_at) / RFU ARHGAP8 /// PRR5-ARHGAP8 (11727945_x_at) / Fold change /veh ARHGAP8 /// PRR5-ARHGAP8 (11727945_x_at) / RFU KRTAP5-7 /// NADSYN1 (11734609_at) / Fold change /veh KRTAP5-7 /// NADSYN1 (11734609_at) / RFU RASL12 (11751679_a_at) / Fold change /veh RASL12 (11751679_a_at) / RFU CDKN2B (11736163_a_at) / Fold change /veh CDKN2B (11736163_a_at) / RFU PRF1 (11729649_at) / Fold change /veh PRF1 (11729649_at) / RFU, ZNF638 /// ZNF638-IT1 / Fold change vs veh, ZNF638 /// ZNF638-IT1 / RFU, PANK3 / Fold change vs veh, PANK3 / RFU, SH3YL1 / Fold change vs veh, SH3YL1 / RFU, ZEB2 / Fold change vs veh, ZEB2 / RFU, NRIP1 / Fold change vs veh, NRIP1 / RFU, PTTG1IP / Fold change vs veh, PTTG1IP / RFU, CAPN2 / Fold change vs veh, CAPN2 / RFU, MED14 / Fold change vs veh, MED14 / RFU, SNORA58 / Fold change vs veh, SNORA58 / RFU, C1orf63 / Fold change vs veh, C1orf63 / RFU, LRRFIP1 / Fold change vs veh, LRRFIP1 / RFU, NDUFAF7 / Fold change vs veh, NDUFAF7 / RFU, SLC12A2 / Fold change vs veh, SLC12A2 / RFU, IBTK / Fold change vs veh, IBTK / RFU, ESF1 / Fold change vs veh, ESF1 / Fold change vs veh, TMEM50B / RFU, TAOK1 / Fold change vs veh, TAOK1 / RFU, ACBD3 / Fold change vs veh, ACBD3 / RFU, TMA16 / Fold change vs veh, TMA16 / RFU, RWDD3 / Fold change vs veh, RWDD3 / RFU, BCAT1 / Fold change vs veh, BCAT1 / RFU, EDEM3 / Fold change vs veh, EDEM3 / RFU, TMEM33 / Fold change vs veh, TMEM33 / RFU, WDR75 / Fold change vs veh, WDR75 / RFU, AHCTF1 / Fold change vs veh, AHCTF1 / RFU, TFRC / Fold change vs veh, TFRC / RFU, ZDHHC17 / Fold change vs veh, ZDHHC17 / RFU, NOM1 / Fold change vs veh, NOM1 / RFU, ARL8B / Fold change vs veh, ARL8B / RFU, ZBTB11 / Fold change vs veh, ZBTB11 / RFU, TAMM41 / Fold change vs veh, TAMM41 / RFU, KIAA1704 /// LOC100996395 / Fold change vs veh, KIAA1704 /// LOC100996395 / RFU, ING1 / Fold change vs veh, ING1 / RFU, TRMT61B / Fold change vs veh, TRMT61B / RFU, FUBP3 / Fold change vs veh, FUBP3 / RFU, TP53 / Fold change vs veh, TP53 / RFU, TNKS2 / Fold change vs veh, TNKS2 / RFU, ZFP14 / Fold change vs veh, ZFP14 / RFU, ACTR2 / Fold change vs veh, ACTR2 / RFU, PPP3R1 / Fold change vs veh, PPP3R1 / RFU, PIK3R1 / Fold change vs veh, PIK3R1 / RFU, HNRNPA1 / Fold change vs veh, HNRNPA1 / RFU, RNF170 / Fold change vs veh, RNF170 / RFU, ZNF28 / Fold change vs veh, ZNF28 / RFU, RNGTT / Fold change vs veh, RNGTT / RFU, OGT / Fold change vs veh, OGT / RFU, BRD1 / Fold change vs veh, BRD1 / RFU, MARS / Fold change vs veh, MARS / RFU, ZNF655 / Fold change vs veh, ZNF655 / RFU, FAHD1 / Fold change vs veh, FAHD1 / RFU, BDP1 / Fold change vs veh, BDP1 / RFU, LRRCC1 / Fold change vs veh, LRRCC1 / RFU, ARID1A / Fold change vs veh, ARID1A / RFU, ZNF146 / Fold change vs veh, ZNF146 / RFU, ZNF330 / Fold change vs veh, ZNF330 / RFU, GPN3 / Fold change vs veh, GPN3 / RFU, C9orf123 / Fold change vs veh, C9orf123 / RFU, N4BP2L2 / Fold change vs veh, N4BP2L2 / RFU, ARFIP1 / Fold change vs veh, ARFIP1 / RFU, FAM179B / Fold change vs veh, FAM179B / RFU, BCL10 / Fold change vs veh, BCL10 / RFU, UHRF1BP1L / Fold change vs veh, UHRF1BP1L / RFU, BET1 / Fold change vs veh, BET1 / RFU, CNOT2 / Fold change vs veh, CNOT2 / RFU, ZNF268 / Fold change vs veh, ZNF268 / Fold change vs veh, ZNF507 / RFU, DGCR2 / Fold change vs veh, DGCR2 / RFU, WDSUB1 / Fold change vs veh, WDSUB1 / Fold change vs veh, HSP90B1 /// MIR3652 / RFU, ADSS / Fold change vs veh, ADSS / RFU, GK / Fold change vs veh, GK / RFU, ZNF148 / Fold change vs veh, ZNF148 / RFU, TAF9 / Fold change vs veh, TAF9 / RFU, SLC1A5 / Fold change vs veh, SLC1A5 / RFU, SLMO2 / Fold change vs veh, SLMO2 / RFU, ABCC4 / Fold change vs veh, ABCC4 / RFU, LOC101060439 /// RAP1B / Fold change vs veh, LOC101060439 /// RAP1B / RFU, RFX7 / Fold change vs veh, RFX7 / RFU, GTPBP10 / Fold change vs veh, GTPBP10 / RFU, CNEP1R1 / Fold change vs veh, CNEP1R1 / RFU, BIVM-ERCC5 /// ERCC5 / Fold change vs veh, BIVM-ERCC5 /// ERCC5 / RFU, ILF3 / Fold change vs veh, ILF3 / RFU 11762660_at / Fold change /veh 11762660_at / RFU VCAN (11757783_s_at) / Fold change /veh VCAN (11757783_s_at) / RFU DDX43 (11728927_at) / Fold change /veh DDX43 (11728927_at) / RFU KRT8 (11758188_x_at) / Fold change /veh KRT8 (11758188_x_at) / RFU NKD1 (11759106_at) / Fold change /veh NKD1 (11759106_at) / RFU SRD5A1 (11742802_a_at) / Fold change /veh SRD5A1 (11742802_a_at) / RFU TPSAB1 /// TPSB2 (11721975_s_at) / Fold change /veh TPSAB1 /// TPSB2 (11721975_s_at) / RFU GSTM3 (11746129_a_at) / Fold change /veh GSTM3 (11746129_a_at) / RFU IL23R (11737362_x_at) / Fold change /veh IL23R (11737362_x_at) / RFU TMEM51 (11727254_a_at) / Fold change /veh TMEM51 (11727254_a_at) / RFU PIWIL2 (11732686_x_at) / Fold change /veh PIWIL2 (11732686_x_at) / RFU ORM1 (11744905_x_at) / Fold change /veh ORM1 (11744905_x_at) / RFU CCDC152 (11743942_at) / Fold change /veh CCDC152 (11743942_at) / RFU ECM1 (11717891_a_at) / Fold change /veh ECM1 (11717891_a_at) / RFU IL23R (11748794_a_at) / Fold change /veh IL23R (11748794_a_at) / RFU TNFAIP8L3 (11732012_x_at) / Fold change /veh TNFAIP8L3 (11732012_x_at) / RFU MBOAT4 (11741988_at) / Fold change /veh MBOAT4 (11741988_at) / RFU 11764193_at / Fold change /veh 11764193_at / RFU TMEM53 (11763286_at) / Fold change /veh TMEM53 (11763286_at) / RFU MAGEB2 (11727129_at) / Fold change /veh MAGEB2 (11727129_at) / RFU TMEM200A (11744735_a_at) / Fold change /veh TMEM200A (11744735_a_at) / RFU CCDC152 (11751479_a_at) / Fold change /veh CCDC152 (11751479_a_at) / RFU FAM211A (11726209_a_at) / Fold change /veh FAM211A (11726209_a_at) / RFU RGS16 (11746705_a_at) / Fold change /veh RGS16 (11746705_a_at) / RFU VCAN (11755009_s_at) / Fold change /veh VCAN (11755009_s_at) / RFU RHOB (11743442_s_at) / Fold change /veh RHOB (11743442_s_at) / RFU RGS16 (11720943_a_at) / Fold change /veh RGS16 (11720943_a_at) / RFU RGS16 (11720944_at) / Fold change /veh RGS16 (11720944_at) / RFU, VPS4B / Fold change vs veh, VPS4B / RFU, CREB1 / Fold change vs veh, CREB1 / RFU, DNAJC13 / Fold change vs veh, DNAJC13 / RFU, GNAQ / Fold change vs veh, GNAQ / RFU, CDK5R1 / Fold change vs veh, CDK5R1 / RFU, ZRANB3 / Fold change vs veh, ZRANB3 / RFU, CUL4A / Fold change vs veh, CUL4A / RFU, CCNY / Fold change vs veh, CCNY / RFU, UFL1 / Fold change vs veh, UFL1 / RFU, COG3 / Fold change vs veh, COG3 / RFU, DIAPH2 / Fold change vs veh, DIAPH2 / RFU, SKA2 / Fold change vs veh, SKA2 / RFU, AFF3 / Fold change vs veh, AFF3 / RFU, LMF1 / Fold change vs veh, LMF1 / RFU, IPO11 / Fold change vs veh, IPO11 / RFU, DFFB / Fold change vs veh, DFFB / RFU, FOXP1 / Fold change vs veh, FOXP1 / RFU, CARD8 / Fold change vs veh, CARD8 / RFU, STRN3 / Fold change vs veh, STRN3 / RFU, ADK / Fold change vs veh, ADK / RFU, RASSF2 / Fold change vs veh, RASSF2 / RFU, WIPF1 / Fold change vs veh, WIPF1 / RFU, LARP1B / Fold change vs veh, LARP1B / RFU, RASA1 / Fold change vs veh, RASA1 / RFU, RB1 / Fold change vs veh, RB1 / RFU, PPFIA1 / Fold change vs veh, PPFIA1 / RFU, MAT2A / Fold change vs veh, MAT2A / RFU, CCT5 / Fold change vs veh, CCT5 / RFU, WDR92 / Fold change vs veh, WDR92 / RFU, CUX1 / Fold change vs veh, CUX1 / RFU, TTC7A / Fold change vs veh, TTC7A / RFU, TMEM135 / Fold change vs veh, TMEM135 / RFU, DEPTOR / Fold change vs veh, DEPTOR / RFU, CPM / Fold change vs veh, CPM / RFU, DNAJB6 / Fold change vs veh, DNAJB6 / RFU, CACNA2D3 / Fold change vs veh, CACNA2D3 / RFU, DTX4 / Fold change vs veh, DTX4 / RFU, TFCP2 / Fold change vs veh, TFCP2 / RFU, GMCL1 /// GMCL1P1 / Fold change vs veh, GMCL1 /// GMCL1P1 / RFU, AEBP2 / Fold change vs veh, AEBP2 / RFU, SNHG1 /// SNORD22 /// SNORD25 /// SNORD26 /// SNORD27 /// SNORD28 /// SNORD29 /// SNORD31 / Fold change vs veh, SNHG1 /// SNORD22 /// SNORD25 /// SNORD26 /// SNORD27 /// SNORD28 /// SNORD29 /// SNORD31 / Fold change (Aza/veh), C12orf56 (ProbeSet 11735607_a_at) / Fold change (ACY-1035/veh), C12orf56 (ProbeSet 11735607_a_at) / Fold change (Aza/veh), FGFR1OP (ProbeSet 11751329_s_at) / Fold change (ACY-1035/veh), FGFR1OP (ProbeSet 11751329_s_at) / Fold change (Aza/veh), VPS36 (ProbeSet 11739960_a_at) / Fold change (ACY-1035/veh), VPS36 (ProbeSet 11739960_a_at) / RFU SYPL1 (11715823_x_at) / Fold change /veh SYPL1 (11715823_x_at) / RFU IGFBP7 (11715501_s_at) / Fold change /veh IGFBP7 (11715501_s_at) / RFU REEP3 (11722064_at) / Fold change /veh REEP3 (11722064_at) / RFU IGLL1 (11728026_x_at) / Fold change /veh IGLL1 (11728026_x_at): dose or concentration left out as unconfirmed
Settings: MV-4-11 cells, 48 hours

## Nc1ncn([C@@H]2O[C@H](CO)[C@@H](O)[C@H]2O)c(=O)n1 [azacitidine]
  RFU IGFBP7 (11715501_s_at): 202.56 RFU
